According to US10208030B2, “GPR119 agonist compounds” (Mankind Pharma Ltd., priority 2016, dated 2019):
Counter-ions that a name gives are not always drawn.

system: Male C57BL/6 mice; assay: Oral glucose tolerance test in C57BL/6 mice; type: in vivo; conditions: 3 mpk and 10 mpk oral
Description: Male C57BL/6 mice (8-10 weeks) were grouped based on basal glucose levels and animals were fasted for 16 hours. Glucose level of each animal was estimated in blood collected from tail vein before animals were dosed orally with 0.5% Tween 80 and 0.5% NaCMC (vehicle control) and compounds at 3 and 10 mpk (n=5). After 30 minutes of compound dosing, blood glucose was again estimated and 2 g/kg/10 ml (20%) of Glucose solution was administered orally to all the animals. Blood glucose was estimated at 15, 30, 60, 90 and 120 minutes time points after glucose administration. Accu-Check active blood glucose meter was utilised for estimation of blood from tail vein.
Glucose reduction observed in animals treated with compounds of present invention is represented in terms of % AUC reduction. A greater glucose reduction in oral glucose tolerance test indicates the compound's efficacy in this rodent species.

Structure (SMILES)	glucose reduction (% AUC reduction) in oral glucose tolerance test
CCCc1cnc(N2CCC(C(C)Oc3nn4cc(-c5ccc(S(C)(=O)=O)nc5)nc4s3)CC2)nc1 (stereo in doubt) [Compound 1081, 2-((S)-1-(1-(5-propylpyrimidin-2-yl)piperidin-4-yl)ethoxy)-6-(6-(methylsulfonyl)pyridin-3-yl)imidazo[2,1-b][1,3,4]thiadiazole]	significant dose dependent glucose reduction

target: T1, hGPR119 (Homo sapiens, UniProt Q8TDV5); assay: In vitro cyclic AMP assay (Cisbio HTRF) in CHO-hGPR119 cells; type: cell-based; conditions: 1 h, cAMP, 1 μM, 60 min, read-out: Induction (% induction at 1 μM)
T1 construct: expressed in transfected cells; host or cells: CHO cells (CHO-hGPR119)
T1 sequence (Q8TDV5 1-335): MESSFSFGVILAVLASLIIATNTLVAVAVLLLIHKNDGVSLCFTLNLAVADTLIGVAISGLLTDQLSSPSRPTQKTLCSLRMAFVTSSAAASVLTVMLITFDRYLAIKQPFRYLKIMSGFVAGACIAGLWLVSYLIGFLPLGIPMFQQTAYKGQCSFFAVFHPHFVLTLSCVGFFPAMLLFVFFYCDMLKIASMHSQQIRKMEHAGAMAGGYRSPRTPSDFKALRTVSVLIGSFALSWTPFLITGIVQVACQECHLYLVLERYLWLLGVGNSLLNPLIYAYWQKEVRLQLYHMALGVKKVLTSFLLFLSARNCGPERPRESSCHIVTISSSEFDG
Summary of the method: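 Cells plated at 5000/well and exposed to test compound dose series for 60 min at room temperature with 1 mM IBMX and 0.5% DMSO (final). Lysis with anti-cAMP antibody/d2-cAMP detection reagents, 1 h at room temperature; HTRF read at 665/620 nm (337 nm excitation); EC50 from concentration-response.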

activation at 1 µM [%]	Structure (SMILES)
66	CCCc1cnc(N2CCC(C(C)Oc3nn4cc(-c5ccc(S(C)(=O)=O)nc5)nc4s3)CC2)nc1 (stereo in doubt) [Compound 1081, 2-((S)-1-(1-(5-propylpyrimidin-2-yl)piperidin-4-yl)ethoxy)-6-(6-(methylsulfonyl)pyridin-3-yl)imidazo[2,1-b][1,3,4]thiadiazole]
74	CCCc1cnc(N2CCC([C@H](C)Oc3nn4cc(-c5ccc(S(C)(=O)=O)cc5F)nc4s3)CC2)nc1 [Compound 1085, 2-((S)-1-(1-(5-propylpyrimidin-2-yl)piperidin-4-yl)ethoxy)-6-(2-fluoro-4-(methylsulfonyl)phenyl)imidazo[2,1-b][1,3,4]thiadiazole]
25	CC(C)c1noc(N2CCC(C(C)Oc3nn4cc(-c5ccncc5C(F)(F)F)nc4s3)CC2)n1 (centres unmarked) [Compound 1092, 2-(1-(1-(3-isopropyl-1,2,4-oxadiazol-5-yl)piperidin-4-yl)ethoxy)-6-(3-(trifluoromethyl)pyridin-4-yl)imidazo[2,1-b][1,3,4]thiadiazole]
75	CCc1cnc(N2CCC([C@H](C)Oc3nn4cc(-c5ccnc(OC)c5)nc4s3)CC2)nc1 [Compound 1093, 2-((S)-1-(1-(5-ethylpyrimidin-2-yl)piperidin-4-yl)ethoxy)-6-(2-methoxypyridin-4-yl)imidazo[2,1-b][1,3,4]thiadiazole]
68	CCCc1cnc(N2CCC([C@H](C)Oc3nn4cc(-c5ccnc(OC)c5)nc4s3)CC2)nc1 [Compound 1094, 2-((S)-1-(1-(5-propylpyrimidin-2-yl)piperidin-4-yl)ethoxy)-6-(2-methoxypyridin-4-yl)imidazo[2,1-b][1,3,4]thiadiazole]
8	COc1cnccc1-c1cn2nc(OC(C)C3CCN(c4nc(C(C)C)no4)CC3)sc2n1 (centres unmarked) [Compound 1095, 2-(1-(1-(3-isopropyl-1,2,4-oxadiazol-5-yl)piperidin-4-yl)ethoxy)-6-(3-methoxypyridin-4-yl)imidazo[2,1-b][1,3,4]thiadiazole]
68	C[C@H](Oc1nn2cc(-c3ccc(S(C)(=O)=O)cc3F)nc2s1)C1CCN(c2ncc(C(F)(F)F)cn2)CC1 [Compound 1098, 2-((S)-1-(1-(5-(trifluoromethyl)pyrimidin-2-yl)piperidin-4-yl)ethoxy)-6-(2-fluoro-4-(methylsulfonyl)phenyl)imidazo[2,1-b][1,3,4]thiadiazole]
9	COc1cc(S(C)(=O)=O)ccc1-c1cn2nc(O[C@@H](C)C3CCN(c4nc(C(C)C)no4)CC3)sc2n1 [Compound 1103, 2-((S)-1-(1-(3-isopropyl-1,2,4-oxadiazol-5-yl)piperidin-4-yl)ethoxy)-6-(2-methoxy-4-(methylsulfonyl)phenyl)imidazo[2,1-b][1,3,4]thiadiazole]
46	Cc1nc(S(C)(=O)=O)ccc1-c1cn2nc(O[C@@H](C)C3CCN(c4nc(C(C)C)no4)CC3)sc2n1 [Compound 1104, 2-((S)-1-(1-(3-isopropyl-1,2,4-oxadiazol-5-yl)piperidin-4-yl)ethoxy)-6-(2-methyl-6-(methylsulfonyl)pyridin-3-yl)imidazo[2,1-b][1,3,4]thiadiazole]
30	CC(C)c1noc(N2CCC([C@@H](C)Oc3nn4cc(-c5ccc(-c6nnn[nH]6)cc5F)nc4s3)CC2)n1 [Compound 1105, 2-((R)-1-(1-(3-isopropyl-1,2,4-oxadiazol-5-yl)piperidin-4-yl)ethoxy)-6-(2-fluoro-4-(1H-tetrazol-5-yl)phenyl)imidazo[2,1-b][1,3,4]thiadiazole hydrochloride]
67	CCOC(=O)N1CCC(C(C)Oc2nn3cc(-c4ccc(S(C)(=O)=O)cc4F)nc3s2)CC1 (centres unmarked) [Compound 1107, Ethyl 4-(1-(6-(2-fluoro-4-(methylsulfonyl)phenyl)imidazo[2,1-b][1,3,4]thiadiazol-2-yloxy)ethyl)piperidine-1-carboxylate]
71	CC(Oc1nn2cc(-c3ccc(S(C)(=O)=O)cc3F)nc2s1)C1CCN(C(=O)OC2(C)CC2)CC1 (centres unmarked) [Compound 1110, 1-methylcyclopropyl 4-(1-(6-(2-fluoro-4-(methylsulfonyl)phenyl)imidazo[2,1-b][1,3,4]thiadiazol-2-yloxy)ethyl)piperidine-1-carboxylate]
63	CC(C)c1noc(N2CCC(C(C)Oc3nn4cc(-c5cncs5)nc4s3)CC2)n1 (centres unmarked) [Compound 1111, 2-(1-(1-(3-isopropyl-1,2,4-oxadiazol-5-yl)piperidin-4-yl)ethoxy)-6-(thiazol-5-yl)imidazo[2,1-b][1,3,4]thiadiazole]
71	Cc1cc(S(C)(=O)=O)ccc1-c1cn2nc(O[C@@H](C)C3CCN(c4nc(C(C)C)no4)CC3)sc2n1 [Compound 1112, 2-((S)-1-(1-(3-isopropyl-1,2,4-oxadiazol-5-yl)piperidin-4-yl)ethoxy)-6-(2-methyl-4-(methylsulfonyl)phenyl)imidazo[2,1-b][1,3,4]thiadiazole]
68	CCOC(=O)N1CCC([C@H](C)Oc2nn3cc(-c4ccc(S(C)(=O)=O)cc4F)nc3s2)CC1 [Compound 1113, ethyl 4-((S)-1-(6-(2-fluoro-4-(methylsulfonyl)phenyl)imidazo[2,1-b][1,3,4]thiadiazol-2-yloxy)ethyl)piperidine-1-carboxylate]
4	CC(C)c1noc(C2CCN(c3nc(-c4ccc(S(C)(=O)=O)cc4)ns3)CC2)n1 [Compound 1114, 4-(3-isopropyl-1,2,4-oxadiazol-5-yl)-1-(3-(4-(methylsulfonyl)phenyl)-1,2,4-thiadiazol-5-yl)piperidine]
14	CC(C)c1noc(N2CCC(C(C)Oc3nc(-c4ccc(S(C)(=O)=O)cc4)ns3)CC2)n1 (centres unmarked) [Compound 1115, 4-(1-(3-(4-(methylsulfonyl)phenyl)-1,2,4-thiadiazol-5-yloxy)ethyl)-1-(3-isopropyl-1,2,4-oxadiazol-5-yl)piperidine]
36	CC(C)c1noc(N2CCC(Oc3nc(-c4ccc(S(C)(=O)=O)cc4)ns3)CC2)n1 [Compound 1116, 4-(3-(4-(methylsulfonyl)phenyl)-1,2,4-thiadiazol-5-yloxy)-1-(3-isopropyl-1,2,4-oxadiazol-5-yl)piperidine]
2	CC(C)c1noc(N2CCC(COc3nc(-c4ccc(S(C)(=O)=O)cc4)ns3)CC2)n1 [Compound 1117, 4-((3-(4-(methylsulfonyl)phenyl)-1,2,4-thiadiazol-5-yloxy)methyl)-1-(3-isopropyl-1,2,4-oxadiazol-5-yl)piperidine]
7	CC(C)c1noc(N2CCC(Oc3nsc(-c4ccc(S(C)(=O)=O)nc4)n3)CC2)n1 [Compound 1119, 5-(3-(1-(3-isopropyl-1,2,4-oxadiazol-5-yl)piperidin-4-yloxy)-1,2,4-thiadiazol-5-yl)-2-(methylsulfonyl)pyridine]
15	CC(C)c1noc(N2CCC(COc3nsc(-c4ccc(S(C)(=O)=O)nc4)n3)CC2)n1 [Compound 1120, 5-(3-((1-(3-isopropyl-1,2,4-oxadiazol-5-yl)piperidin-4-yl)methoxy)-1,2,4-thiadiazol-5-yl)-2-(methylsulfonyl)pyridine]
18	CCCc1cnc(N2CCC(Oc3nc(-c4ccc(S(C)(=O)=O)nc4)ns3)CC2)nc1 [Compound 1123, 2-(4-(3-(6-(methylsulfonyl)pyridin-3-yl)-1,2,4-thiadiazol-5-yloxy)piperidin-1-yl)-5-propylpyrimidine]
6	CC(C)c1noc(N2CCC(Oc3nc(N(C)c4ccc(S(C)(=O)=O)nc4)ns3)CC2)n1 [Compound 1124, N-(5-(1-(3-isopropyl-1,2,4-oxadiazol-5-yl)piperidin-4-yloxy)-1,2,4-thiadiazol-3-yl)-N-methyl-6-(methylsulfonyl)pyridin-3-amine]
7	CC(C)c1noc(N2CCC(Nc3nc(-c4ccc(S(C)(=O)=O)nc4)ns3)CC2)n1 [Compound 1126, 1-(3-isopropyl-1,2,4-oxadiazol-5-yl)-N-(3-(6-(methylsulfonyl)pyridin-3-yl)-1,2,4-thiadiazol-5-yl)piperidin-4-amine]
4	CC(C)c1noc(N2CCC(N(C)c3nc(-c4ccc(S(C)(=O)=O)nc4)ns3)CC2)n1 [Compound 1127, 1-(3-isopropyl-1,2,4-oxadiazol-5-yl)-N-methyl-N-(3-(6-(methylsulfonyl)pyridin-3-yl)-1,2,4-thiadiazol-5-yl)piperidin-4-amine]

same assay, conditions: cAMP, class symbols, legend not given

EC50	Structure (SMILES)
A++	CCCc1cnc(N2CCC(C(C)Oc3nn4cc(-c5ccc(S(C)(=O)=O)nc5)nc4s3)CC2)nc1 (stereo in doubt) [Compound 1081, 2-((S)-1-(1-(5-propylpyrimidin-2-yl)piperidin-4-yl)ethoxy)-6-(6-(methylsulfonyl)pyridin-3-yl)imidazo[2,1-b][1,3,4]thiadiazole]
A++	CCCc1cnc(N2CCC([C@H](C)Oc3nn4cc(-c5ccc(S(C)(=O)=O)cc5F)nc4s3)CC2)nc1 [Compound 1085, 2-((S)-1-(1-(5-propylpyrimidin-2-yl)piperidin-4-yl)ethoxy)-6-(2-fluoro-4-(methylsulfonyl)phenyl)imidazo[2,1-b][1,3,4]thiadiazole]
A+	CCOC(=O)N1CCC([C@H](C)Oc2nn3cc(-c4ccc(S(C)(=O)=O)cc4F)nc3s2)CC1 [Compound 1113, ethyl 4-((S)-1-(6-(2-fluoro-4-(methylsulfonyl)phenyl)imidazo[2,1-b][1,3,4]thiadiazol-2-yloxy)ethyl)piperidine-1-carboxylate]
